Read-outs that look alike come from different tables or passages of the source.
Experiments:
A549 cells = experiment: Cell-based assay: anti-proliferative activity, Cell Counting Kit-8, 72 hours (A549); settings: 72 hours
Procedure, shortened: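 A549 cells were seeded in 96-well plates and exposed to candidate inhibitors for 72 hours. Cell growth was then measured with Cell Counting Kit-8, and IC50 values were calculated from the resulting growth data.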

T47D cells = experiment: Cell-based assay: anti-proliferative activity, Cell Counting Kit-8, 72 hours (T47D)
Procedure, shortened: (§1)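 Anti-MELK western blot on crude lysates → MELK status per line. Cells plated 96-well, compound exposure, CCK-8 readout at 72 h; IC50 calculated.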

HT-1197 cells = experiment: Cell-based assay: anti-proliferative activity, Cell Counting Kit-8, 72 hours (HT-1197, negative control without MELK expression); settings: Homo sapiens, HT1197, 72 h, HT1197 cells (negative control, no MELK expression), 72 hours
Procedure, shortened: as §1

DU4475 = experiment: Cell-based assay: anti-proliferative activity, Cell Counting Kit-8, 72 hours (DU4475); settings: Homo sapiens, DU-4475, DU4475 cells
MELK = MELK (Homo sapiens, UniProt Q14680); experiment: Kinase assay: MELK activity, phosphorylation of FITC-labeled histone H3 peptide measured by IMAP fluorescence polarization; format: biochemical; settings: read-out: IC50 (μM) (kinase assay)
Chain of MELK (Q14680 whole entry, looked up): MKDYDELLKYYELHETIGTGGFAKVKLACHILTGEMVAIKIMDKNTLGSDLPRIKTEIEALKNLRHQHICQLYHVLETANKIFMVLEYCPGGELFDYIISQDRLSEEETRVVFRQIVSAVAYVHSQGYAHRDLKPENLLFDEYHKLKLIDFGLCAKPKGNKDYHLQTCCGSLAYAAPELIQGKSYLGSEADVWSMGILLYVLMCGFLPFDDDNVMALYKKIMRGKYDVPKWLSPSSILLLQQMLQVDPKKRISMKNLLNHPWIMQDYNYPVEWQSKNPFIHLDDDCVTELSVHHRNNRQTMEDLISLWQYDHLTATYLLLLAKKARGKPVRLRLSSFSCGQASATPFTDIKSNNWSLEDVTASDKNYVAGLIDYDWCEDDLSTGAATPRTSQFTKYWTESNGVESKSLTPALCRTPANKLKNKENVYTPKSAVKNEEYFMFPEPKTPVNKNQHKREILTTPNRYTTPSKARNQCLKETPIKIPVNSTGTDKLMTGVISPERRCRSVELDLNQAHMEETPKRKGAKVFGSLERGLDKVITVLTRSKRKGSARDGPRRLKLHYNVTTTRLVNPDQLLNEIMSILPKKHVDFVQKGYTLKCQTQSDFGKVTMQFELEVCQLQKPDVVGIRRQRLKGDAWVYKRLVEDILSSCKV
Procedure, shortened: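 Compounds, serially diluted from 12.5 mM DMSO stocks to 1% final DMSO, were tested with FITC-labeled histone H3 peptide as substrate. The reaction was stopped with progressive binding solution. Fluorescence polarization was read after 0.5 hour at room temperature.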

[1] = 50 micro-M ATP, FITC-labeled histone H3 peptide substrate, IMAP fluorescence polarization

Row | SMILES | IC50 (A549 cells; Homo sapiens, A549, 72 h) | IC50 (T47D cells; Homo sapiens, T47D, 72 h) | IC50 (HT-1197 cells) | IC50 (DU4475) | IC50 (MELK; [1]) | IC50 (MELK) | IC50 (A549 cells) | IC50 (T47D cells; 72 hours)
1 | O=C(c1cnc2ccc(-c3cc(F)c(O)c(Cl)c3)cc2c1Nc1ccc(CN2CCOCC2)cc1)C1CC1 [Example 460] | 0.59 µM | 0.65 µM | 4.2 µM | 0.42 µM | 0.083 µM |  |  | 
2 | COc1cc(-c2ccc3ncc([S+](C)[O-])c(N4CCC(CN(C)C)CC4)c3c2)cc(Cl)c1O (centres unmarked) [Example 468] | 1.4 µM | 0.93 µM | 9.2 µM | 0.93 µM |  | 0.0051 µM |  | 
3 | CN1CCN(c2ncc(-c3c(C(=O)C4CC4)cnc4ccc(-c5cc(Cl)c(O)c(Cl)c5)cc34)cn2)CC1 [Example 479, cyclopropyl(6-(3,5-dichloro-4-hydroxyphenyl)-4-(2-(4-methylpiperazin-1-yl)pyrimidin-5-yl)quinolin-3-yl)methanone] | 1.7 µM | 0.92 µM | 7.9 µM | 1.7 µM |  | 0.04 µM |  | 
4 | CN(C)C[C@H]1CC[C@H](Nc2c(S(C)(=O)=O)cnc3ccc(-c4cc(F)c(O)c(Cl)c4)cc23)CC1 [Example 423] | 0.93 µM | 0.42 µM | 2.4 µM | 0.31 µM | 0.0063 µM |  |  | 
5 | CN1CCN(Cc2ccc(Nc3c(C(=O)C4CC4)cnc4ccc(-c5cc(Cl)c(O)c(Cl)c5)cc34)cc2)CC1 [Example 397, Cyclopropyl{6-(3,5-dichloro-4-hydroxyphenyl)-4-[4-((4-methylpiperazin-1-yl)methyl)phenylamino]quinolin-3-yl}methanone] | 0.15 µM | 0.33 µM | 5.2 µM | 0.088 µM | 0.0076 µM |  |  | 
6 | CN(C)CC(=O)N1CC2CC1CN2c1c(C(=O)C2CC2)cnc2ccc(-c3ccc(O)c(Cl)c3)cc12 (centres unmarked) [Example 464] | 5.5 µM | 6.6 µM | 17 µM | 3.4 µM | 0.051 µM |  |  | 
7 | CN1CCN(c2ccc(Nc3c(C(=O)C4CC4)cnc4ccc(-c5cc(Cl)c(O)c(Cl)c5)cc34)cn2)CC1 [Example 472] | 0.18 µM | 0.3 µM | 5.7 µM | 0.11 µM |  | 0.023 µM |  | 
8 | COc1cc(-c2ccc3ncc(C(=O)C4CC4)c(N4CCN(CCN5CCCC5)CC4)c3c2)cc(Cl)c1O [Example 394, (6-(3-chloro-4-hydroxy-5-methoxyphenyl)-4-(4-(2-(pyrrolidin-1-yl)ethyl)piperazin-1-yl)quinolin-3-yl)(cyclopropyl)methanone] | 0.25 µM | 0.4 µM | 5.3 µM | 0.24 µM | 0.0018 µM |  |  | 
9 | O=C(c1cnc2ccc(-c3cc(Cl)c(O)c(Cl)c3)cc2c1Nc1cnc(N2CCNCC2)nc1)C1CC1 [Example 497, cyclopropyl(6-(3,5-dichloro-4-hydroxyphenyl)-4-((2-(piperazin-1-yl)pyrimidin-5-yl)amino)quinolin-3-yl)methanone] | 0.12 µM | 0.052 µM | 0.97 µM | 0.056 µM |  | 0.0021 µM |  | 
10 | O=C(c1cnc2ccc(-c3cc(Cl)c(O)c(Cl)c3)cc2c1Nc1ccc(N2CCNCC2)nc1)C1CC1 [Example 409, Cyclopropyl{6-(3,5-dichloro-4-hydroxyphenyl)-4-[6-(piperazin-1-yl)pyridin-3-ylamino]quinolin-3-yl}methanone] | 0.26 µM | 0.074 µM | 1.6 µM | 0.098 µM | 0.0017 µM |  |  | 
11 | COc1cc(-c2ccc3ncc(C(=O)C4CC4)c(N[C@H]4CC[C@H](CN)CC4)c3c2)cc(Cl)c1O [Example 493, {4-[trans-4-(Aminomethyl)cyclohexylamino]-6-(3-chloro-4-hydroxy-5-methoxyphenyl)quinolin-3-yl}(cyclopropyl)methanone] | 0.095 µM | 0.078 µM | 0.82 µM | 0.068 µM |  | 0.003 µM |  | 
12 | COc1cc(-c2ccc3ncc(C(=O)C4CC4)c(Nc4ccc(CN)cc4)c3c2)cc(Cl)c1O [Example 506, (4-(4-(aminomethyl)phenylamino)-6-(3-chloro-4-hydroxy-5-methoxyphenyl)quinolin-3-yl)(cyclopropyl)methanone] | 0.18 µM | 0.15 µM | 0.74 µM | 0.13 µM |  | 0.0032 µM |  | 
13 | COc1cc(-c2ccc3ncc(C(C)=O)c(Nc4ccc(N5CCN(C)CC5)nc4)c3c2)cc(Cl)c1O [Example 483, 1-(6-(3-chloro-4-hydroxy-5-methoxyphenyl)-4-(6-(4-methylpiperazin-1-yl)pyridin-3-ylamino)quinolin-3-yl)ethanone] | 0.64 µM | 0.64 µM | 0.89 µM | 0.69 µM |  | 0.016 µM |  | 
14 | CCN(CC)C1CCC(Nc2c(C(=O)C3CCCC3)cnc3ccc(-c4cc(F)c(O)c(Cl)c4)cc23)CC1 (centres unmarked) [Example 386, (6-(3-chloro-5-fluoro-4-hydroxyphenyl)-4-(4-(diethylamino)cyclohexylamino)quinolin-3-yl)(cyclopentyl)methanone] | 0.4 µM | 0.41 µM | 0.78 µM | 0.29 µM | 0.0092 µM |  |  | 
15 | C[S+]([O-])c1cnc2ccc(-c3cc(F)c(O)c(Cl)c3)cc2c1N[C@H]1CC[C@H](N)CC1 (some centres unmarked) [Example 498] | 10 µM | 10 µM | 10 µM | 2.8 µM |  | 0.046 µM |  | 
16 | COc1cc(-c2ccc3ncc(C(C)=O)c(N4CCN(C(=O)CN(C)C)CC4)c3c2)cc(Cl)c1O [Example 477, 1-(4-(3-acetyl-6-(3-chloro-4-hydroxy-5-methoxyphenyl)quinolin-4-yl)piperazin-1-yl)-2-(dimethylamino)ethanone] | 0.36 µM | 0.87 µM | 4.7 µM | 0.3 µM |  | 0.0016 µM |  | 
17 | COc1cc(-c2ccc3ncc(C(=O)C4CC4)c(Nc4cnc(N5CCNCC5)nc4)c3c2)cc(Cl)c1O [Example 503, (6-(3-chloro-4-hydroxy-5-methoxyphenyl)-4-(2-(piperazin-1-yl)pyrimidin-5-ylamino)quinolin-3-yl)(cyclopropyl)methanone] | 0.37 µM | 0.24 µM | 1.1 µM | 0.46 µM |  | 0.0047 µM |  | 
18 | COc1cc(-c2ccc3ncc(C(C)=O)c(N[C@H]4CC[C@H](CN(C)C)CC4)c3c2)cc(Cl)c1O [Example 392] | 0.27 µM | 0.25 µM | 10 µM | 0.44 µM | 0.0034 µM |  |  | 
19 | CCOc1cc(-c2ccc3ncc(C(C)=O)c(N[C@H]4CC[C@H](N)CC4)c3c2)cc(Cl)c1O [Example 486] | 0.11 µM | 0.15 µM | 2.2 µM | 0.13 µM |  | 0.0021 µM |  | 
20 | CN(C)Cc1ccc(Nc2c(S(C)(=O)=O)cnc3ccc(-c4cc(Cl)c(O)c(Cl)c4)cc23)cc1 [Example 400, 2,6-dichloro-4-(4-((4-((dimethylamino)methyl)phenyl)amino)-3-(methylsulfonyl)quinolin-6-yl)phenol] | 0.3 µM | 0.23 µM | 1.8 µM | 0.07 µM | 0.0034 µM |  |  | 
21 | CC(=O)c1cnc2ccc(-c3cc(F)c(O)c(Cl)c3)cc2c1Nc1ccc(N2CCN(C)CC2)nc1 [Example 487, 1-(6-(3-Chloro-5-fluoro-4-hydroxyphenyl)-4-(6-(4-methylpiperazin-1-yl)pyridin-3-ylamino)quinolin-3-yl)ethanone] |  |  | 1.4 µM | 0.1 µM |  | 0.01 µM | 0.088 µM | 0.041 µM
22 | CC(C)C(=O)c1cnc2ccc(-c3cc4cc(O)ccc4[nH]3)cc2c1N[C@H]1CC[C@H](N)CC1 [Example 480] | 2.7 µM | 0.59 µM | 4.6 µM | 0.93 µM |  | 0.054 µM |  | 
23 | COc1cc(-c2ccc3ncc(C(=O)C4CC4)c(Nc4ccc(N5CCN(C)CC5)nc4)c3c2)cc(Cl)c1O [Example 470] | 0.56 µM | 0.26 µM | 2.2 µM | 0.68 µM |  | 0.015 µM |  | 
24 | CN(C)C[C@H]1CC[C@H](Nc2c(S(C)(=O)=O)cnc3ccc(-c4cc(Cl)c(O)c(Cl)c4)cc23)CC1 [Example 420, 2,6-dichloro-4-(4-((1R,4R)-4-((dimethylamino)methyl)cyclohexylamino)-3-(methylsulfonyl)quinolin-6-yl)phenol] | 0.69 µM | 0.47 µM | 2.5 µM | 0.14 µM | 0.0023 µM |  |  | 
25 | NCc1ccc(Nc2c(C(=O)C3CC3)cnc3ccc(-c4cc(Cl)c(O)c(Cl)c4)cc23)cc1 [Example 507, {4-[4-(Aminomethyl)phenylamino]-6-(3,5-dichloro-4-hydroxyphenyl)quinolin-3-yl}(cyclopropyl)methanone] | 0.059 µM | 0.094 µM | 0.58 µM | 0.018 µM |  | 0.0038 µM |  | 
26 | COc1cc(-c2ccc3ncc(C(=O)C4CC4)c(Nc4ccc(CN5CCN(C)CC5)cc4)c3c2)cc(Cl)c1O [Example 398, (6-(3-chloro-4-hydroxy-5-methoxyphenyl)-4-(4-((4-methylpiperazin-1-yl)methyl)phenylamino)quinolin-3-yl)(cyclopropyl)methanone] | 0.38 µM | 0.78 µM | 4.7 µM | 0.73 µM | 0.0084 µM |  |  | 
27 | CN(C)Cc1ccc(Nc2c([S+](C)[O-])cnc3ccc(-c4cc(Cl)c(O)c(Cl)c4)cc23)cc1 (centres unmarked) [Example 473] | 1.2 µM | 0.43 µM | 2.4 µM | 0.6 µM |  |  |  | 

Reference: US9120749B2, “Quinoline derivatives and MELK inhibitors containing the same” (ONCOTHERAPY SCIENCE, INC., priority 2010, dated 2015)
